The values that follow are results of earlier work, collected in patent US10617778B2, “Self-sterilizing package and methods for making and using the same” (priority 2014, dated 2020).

The data set has as its system humans.

On to `[O][Cl+][O-]` [chlorine dioxide], for which the “vapor concentration at which the gas can be toxic” value is on record as “greater than 0.3 ppm”.
